Data on seven molecules can be found in ChEMBL document CHEMBL2016439, “Antitumor activity of annonaceous acetogenins in HepS and S180 xenografts bearing mice” (Bioorg Med Chem Lett, 2012).

The nature of data set [1]: Antitumor activity against mouse HepS cells allografted in Kunming mouse assessed as tumor growth inhibition at 15 ug/kg, ip qd administered 24 hrs post challenge for 10 days. Conditions: read-out: GI. Type of data set: functional.
The test system of data set [2] is CCRF S-180. Briefly: Antitumor activity against mouse S180 cells allografted in ip dosed Kunming mouse assessed as tumor growth inhibition administered qd 24 hrs post challenge for 10 days. The format is functional, organism-based.
The test system of data set [3] is CCRF S-180. Briefly: Antitumor activity against mouse S180 cells allografted in Kunming mouse assessed as tumor growth inhibition at 60 ug/kg, ip qd administered 24 hrs post challenge for 10 days. Type of data set: functional. The note with it: CCRF S-180, ip, read-out: GI.
In data set [4] the test system is HepS. The data set is described as follows: Antitumor activity against mouse HepS cells allografted in ip dosed Kunming mouse assessed as tumor growth inhibition administered qd 24 hrs post challenge for 10 days. The format is functional, organism-based.
Data set [5] concerns CCRF S-180. The data set is described as follows: Antitumor activity against mouse S180 cells allografted in Kunming mouse assessed as tumor growth inhibition at 15 ug/kg, ip qd administered 24 hrs post challenge for 10 days. Type of data set: functional. Conditions: CCRF S-180, ip, read-out: GI.
Data set [6] can be described thus: Antitumor activity against mouse HepS cells allografted in Kunming mouse assessed as tumor growth inhibition at 60 ug/kg, ip qd administered 24 hrs post challenge for 10 days. Type of data set: functional. Conditions: read-out: GI.
A short description of data set [7]: Antitumor activity against mouse HepS cells allografted in Kunming mouse assessed as tumor growth inhibition at 40 ug/kg, ip qd administered 24 hrs post challenge for 10 days. The note with it: read-out: GI. The format is functional.
Data set [8] deals with CCRF S-180. The data set is described as follows: Antitumor activity against mouse S180 cells allografted in Kunming mouse assessed as tumor growth inhibition at 40 ug/kg, ip qd administered 24 hrs post challenge for 10 days. Conditions: CCRF S-180, ip, read-out: GI. Type of data set: functional.
Data set [9] deals with CCRF S-180. The data set is described as follows: Antitumor activity against mouse S180 cells allografted in Kunming mouse assessed as improved spleen index at 40 ug/kg, ip qd administered 24 hrs post challenge for 10 days. Type of data set: functional, organism-based.
For data set [10], the system named is HepS. The data set is described as follows: Antitumor activity against mouse HepS cells allografted in Kunming mouse assessed as improved spleen index at 40 ug/kg, ip qd administered 24 hrs post challenge for 10 days. Type of data set: functional, organism-based.
Data set [11] deals with Mus musculus. Briefly: Toxicity in Kunming mouse allografted with mouse HepS cells assessed as adverse effects at 60 ug/kg, ip qd administered 24 hrs post challenge for 10 days. Conditions: in vivo, 0.06 mg/kg. Type of data set: organism-based.
Data set [12] deals with Mus musculus. The data set is described as follows: Toxicity in Kunming mouse allografted with mouse S180 cells assessed as adverse effects at 60 ug/kg, ip qd administered 24 hrs post challenge for 10 days. The format is organism-based, CCRF S-180. The note with it: in vivo, 0.06 mg/kg.

The source made the active and inactive calls. The calls are words filed in the database; no cut-off is given here.

As to `CCCCCCCCCCCC[C@@H](O)[C@H]1CC[C@H]([C@H](O)CCCCCC(O)CCCCCCC2=C[C@H](C)OC2=O)O1` (some centres undefined), the inhibition in vivo at 0.015 mg/kg in data set [1] is 61.5%; in the data set on CCRF S-180 [5], 43.9%. Moreover, the “growth inhibition (GI)” value in the data set on CCRF S-180 [2] and in the data set on HepS [4] was “Dose-dependent effect” each time. In addition, the inhibition in vivo at 0.06 mg/kg in the data set on CCRF S-180 [3] came out at 48.3%; in data set [6] it was 67.3%.

For `CC(=O)O[C@H]1C(=O)[C@@]2(C)[C@H]([C@H](OC(=O)c3ccccc3)[C@]3(O)C[C@H](OC(=O)[C@H](O)[C@@H](NC(=O)c4ccccc4)c4ccccc4)C(C)=C1C3(C)C)[C@]1(OC(C)=O)CO[C@@H]1C[C@@H]2O` [PACLITAXEL], the inhibition in vivo at 0.04 mg/kg in data set [7] is 62.2%; in the data set with CCRF S-180 [8] it was 48.9%. In addition, the outcome in the data set with CCRF S-180 [9] and in the data set with HepS [10] was Active.

As to `CCCCCCCCCC[C@@H](O)[C@@H]1CC[C@@H]([C@@H]2CC[C@@H]([C@H](O)CCCCCCCCCC(O)CC3=CC(C)OC3=O)O2)O1` (some centres undefined) [BULLATACIN], the inhibition in vivo at 0.015 mg/kg in [1] is 63.4%; in the data set on CCRF S-180 [5] it was 65.8%. Further, the “growth inhibition (GI)” value in the data set with CCRF S-180 [2] and in the data set on HepS [4] was “Dose-dependent effect” each time.

With `CCCCCCCCCC[C@H](O)[C@H]1CC[C@H]([C@H]2CC[C@H]([C@H](O)CCCCCCCCCCCCC3=C[C@H](C)OC3=O)O2)O1` [BULLANIN], the inhibition in vivo at 0.015 mg/kg in [1] is 32.5%; in the data set on CCRF S-180 [5] it was 42.3%. Also, the “growth inhibition (GI)” value in the data set on CCRF S-180 [2] and in the data set on HepS [4] was “Dose-dependent effect” throughout. The figures for the inhibition in vivo at 0.06 mg/kg (in the data set on CCRF S-180 [3]; in [6]) were 63.9% and 70.9%, respectively.

As to `CCCCCCCCCC[C@H](O)[C@H]1CC[C@H]([C@H]2CC[C@H]([C@H](O)CCCCCCCCCC[C@@H](O)CC3=C[C@H](C)OC3=O)O2)O1` [BULLATACIN], the Activity entry in the data set with Mus musculus [11] and in the data set with Mus musculus [12] was “Toxic” in each case.

In the case of `CCCCCCCCCC[C@@H](O)[C@@H]1CC[C@@H]([C@H](O)CC[C@@H](O)[C@@H]2CC[C@@H](CCCCCCCCCC3=C[C@H](C)OC3=O)O2)O1` [SQUAMOSTATIN E], the inhibition in vivo at 0.015 mg/kg in data set [1] stood at 34.2%; with CCRF S-180 [5], 27.2%. Besides, the “growth inhibition (GI)” value with CCRF S-180 [2] and in the data set with HepS [4] was “Dose-dependent effect” throughout. The inhibition in vivo at 0.06 mg/kg in the data set on CCRF S-180 [3] was determined as 51.1%; in data set [6], 51.3%.

Turning to `CCCCCC[C@H](O)CCC[C@H](O)[C@H]1CC[C@H]([C@H](O)CC[C@H](O)[C@@H]2CC[C@@H](CCCCCCCCCC3=C[C@H](C)OC3=O)O2)O1` [SQUAMOSTATIN A], the inhibition in vivo at 0.015 mg/kg in data set [1] came to 15%; in the data set with CCRF S-180 [5] it was 52.7%. The “growth inhibition (GI)” value with CCRF S-180 [2] and with HepS [4] was “Dose-dependent effect” each time. In addition, the figures for the inhibition in vivo at 0.06 mg/kg (in the data set on CCRF S-180 [3]; in [6]) were 54.2% and 31.2%, respectively.
